Test results taken from patent US10875876B2, “Cyclized sulfamoylarylamide derivatives and the use thereof as medicaments for the treatment of hepatitis B” (priority 2015, dated 2020).

How the values were obtained:
HBV = assay: anti HBV activity, HepG2.117 cell line, intracellular HBV DNA by realtime PCR; type: cell-based; details: Hepatitis B virus, HepG2.117, 72 h, HepG2.117 cell line (Tet-off), 3 days of treatment, intracellular HBV DNA quantified by realtime PCR; read-out: HBV-AVE-HepG2.117 EC50
Procedure, shortened: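 HepG2.117 cells, a Tet-off line that replicates HBV without doxycycline, were induced and then treated in duplicate with serially diluted compound. After 3 days, intracellular HBV DNA was quantified by real-time PCR with an HBV-specific primer set and probe.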

[1] = Cytotoxicity in HepG2 cells, Resazurin assay; details: human, HepG2 cells, TOX-HepG2-4 d CC50 (μM), HepG2 cells incubated for 4 days, viability by Resazurin assay

C[C@H](O)[C@H]1CCc2c(cn(C)c2C(=O)Nc2ccnc(Br)c2)S(=O)(=O)N1 [Compound 111, (3R)—N-(2-bromo-4-pyridyl)-3-[(1S)-1-hydroxyethyl]-7-methyl-1,1-dioxo-2,3,4,5-tetrahydropyrrolo[3,4-f]thiazepine-6-carboxamide]
EC50 (HBV): 89 nM
CC50 at 4 days [1]: > 25 µM

Cn1cc2c(c1C(=O)Nc1ccc(F)c(C(F)F)c1)OC[C@H](C(O)C1CC1)NS2(=O)=O (stereo partly drawn) [Compound 115a, (3R)-3-[cyclopropyl(hydroxy)methyl]-N-[3-(difluoromethyl)-4-fluoro-phenyl]-7-methyl-1,1-dioxo-3,4-dihydro-2H-pyrrolo[3,4-b][1,4,5]oxathiazepine-6-carboxamide]
EC50 (HBV): 8 nM
CC50 at 4 days [1]: > 25 µM

Cn1cc2c(c1C(=O)Nc1ccc(F)c(C#N)c1)CCC(C(C)(O)C(F)(F)F)NS2(=O)=O (stereo not drawn) [Compound 117, N-(3-cyano-4-fluoro-phenyl)-7-methyl-1,1-dioxo-3-(2,2,2-trifluoro-1-hydroxy-1-methyl-ethyl)-2,3,4,5-tetrahydropyrrolo[3,4-f]thiazepine-6-carboxamide]
EC50 (HBV): 10 nM
CC50 at 4 days [1]: > 25 µM

Cn1cc2c(c1C(=O)Nc1ccc(F)c(C#N)c1)CCC(C(C)(F)F)NS2(=O)=O (stereo not drawn) [Compound 118, N-(3-cyano-4-fluoro-phenyl)-3-(1,1-difluoroethyl)-7-methyl-1,1-dioxo-2,3,4,5-tetrahydropyrrolo[3,4-f]thiazepine-6-carboxamide]
EC50 (HBV): 13 nM
CC50 at 4 days [1]: > 25 µM

CC(C)C(O)C1COc2c(cn(C)c2C(=O)Nc2ccc(F)c(C#N)c2)S(=O)(=O)N1 (stereo not drawn) [Compound 119a, N-(3-cyano-4-fluoro-phenyl)-3-(1-hydroxy-2-methyl-propyl)-7-methyl-1,1-dioxo-3,4-dihydro-2H-pyrrolo[3,4-b][1,4,5]oxathiazepine-6-carboxamide]
EC50 (HBV): 11 nM
CC50 at 4 days [1]: > 25 µM

Cn1cc2c(c1C(=O)Nc1ccc(F)c(C#N)c1)OC[C@H](C(O)C1CC1)NS2(=O)=O (stereo partly drawn) [Compound 120a, (3R)—N-(3-cyano-4-fluoro-phenyl)-3-[cyclopropyl(hydroxy)methyl]-7-methyl-1,1-dioxo-3,4-dihydro-2H-pyrrolo[3,4-b][1,4,5]oxathiazepine-6-carboxamide]
EC50 (HBV): 7 nM
CC50 at 4 days [1]: > 25 µM

CCC(O)[C@H]1COc2c(cn(C)c2C(=O)Nc2ccc(F)c(C#N)c2)S(=O)(=O)N1 (stereo partly drawn) [Compound 122a, (3R)—N-(3-cyano-4-fluoro-phenyl)-3-(1-hydroxypropyl)-7-methyl-1,1-dioxo-3,4-dihydro-2H-pyrrolo[3,4-b][1,4,5]oxathiazepine-6-carboxamide]
EC50 (HBV): 12 nM
CC50 at 4 days [1]: > 25 µM

Cn1cc2c(c1C(=O)Nc1ccc(F)c(F)c1)OC[C@@H](C(O)C(F)(F)F)NS2(=O)=O (stereo partly drawn) [Compound 123, (3S)—N-(3,4-difluorophenyl)-7-methyl-1,1-dioxo-3-(2,2,2-trifluoro-1-hydroxy-ethyl)-3,4-dihydro-2H-pyrrolo[3,4-b][1,4,5]oxathiazepine-6-carboxamide]
EC50 (HBV): 19 nM
CC50 at 4 days [1]: > 25 µM

CCC(O)[C@H]1COc2c(cn(C)c2C(=O)Nc2ccc(F)c(C(F)F)c2)S(=O)(=O)N1 (stereo partly drawn) [Compound 124a, (3R)—N-[3-(difluoromethyl)-4-fluoro-phenyl]-3-(1-hydroxypropyl)-7-methyl-1,1-dioxo-3,4-dihydro-2H-pyrrolo[3,4-b][1,4,5]oxathiazepine-6-carboxamide]
EC50 (HBV): 5 nM
CC50 at 4 days [1]: > 25 µM

COCOC(c1ccccn1)C1COc2c(cn(C)c2C(=O)Nc2ccc(F)c(F)c2)S(=O)(=O)N1 (stereo not drawn) [Compound 129, N-(3,4-difluorophenyl)-3-[methoxymethoxy(2-pyridyl)methyl]-7-methyl-1,1-dioxo-3,4-dihydro-2H-pyrrolo[3,4-b][1,4,5]oxathiazepine-6-carboxamide]
EC50 (HBV): 12 nM
CC50 at 4 days [1]: > 25 µM

CCC(O)[C@H]1COc2c(cn(C)c2C(=O)Nc2ccc(F)c(F)c2)S(=O)(=O)N1 (stereo partly drawn) [Compound 130a, (3R)—N-(3,4-difluorophenyl)-3-(1-hydroxypropyl)-7-methyl-1,1-dioxo-3,4-dihydro-2H-pyrrolo[3,4-b][1,4,5]oxathiazepine-6-carboxamide]
EC50 (HBV): 18 nM
CC50 at 4 days [1]: > 25 µM

Cn1cc2c(c1C(=O)Nc1ccc(F)c(F)c1)CCC1(COC1)NS2(=O)=O [Compound 131, N-(3,4-difluorophenyl)-7-methyl-1,1-dioxo-spiro[4,5-dihydro-2H-pyrrolo[3,4-f]thiazepine-3,3′-oxetane]-6-carboxamide]
EC50 (HBV): 23 nM
CC50 at 4 days [1]: > 25 µM

Cn1cc2c(c1C(=O)Nc1ccc(F)c(F)c1)C=CC1(COC1)NS2(=O)=O [Compound 132, N-(3,4-difluorophenyl)-7-methyl-1,1-dioxo-spiro[2H-pyrrolo[3,4-f]-thiazepine-3,3′-oxetane]-6-carboxamide]
EC50 (HBV): 19 nM
CC50 at 4 days [1]: > 25 µM

Cn1cc2c(c1C(=O)Nc1ccc(F)c(F)c1)OCC(C)(C)NS2(=O)=O [Compound 133, N-(3,4-difluorophenyl)-3,3,7-trimethyl-1,1-dioxo-2,4-dihydropyrrolo-[3,4-b][1,4,5]oxathiazepine-6-carboxamide]
EC50 (HBV): 11 nM
CC50 at 4 days [1]: > 25 µM

Cn1cc2c(c1C(=O)Nc1ccc(F)c(C#N)c1)OCC(C)(C)NS2(=O)=O [Compound 135, N-(3-cyano-4-fluoro-phenyl)-3,3,7-trimethyl-1,1-dioxo-2,4-dihydropyrrolo[3,4-b][1,4,5]oxathiazepine-6-carboxamide]
EC50 (HBV): 5 nM
CC50 at 4 days [1]: > 25 µM

Cn1cc2c(c1C(=O)Nc1cc(F)c(F)c(F)c1)CCC1(COC1)NS2(=O)=O [Compound 136, 7-methyl-1,1-dioxo-N-(3,4,5-trifluorophenyl)spiro[4,5-dihydro-2H-pyrrolo[3,4-f]thiazepine-3,3′-oxetane]-6-carboxamide]
EC50 (HBV): 16 nM
CC50 at 4 days [1]: > 25 µM

Cn1cc2c(c1C(=O)Nc1ccc(F)c(C(F)F)c1)CCC1(COC1)NS2(=O)=O [Compound 137, N-[3-(difluoromethyl)-4-fluoro-phenyl]-7-methyl-1,1-dioxo-spiro[4,5-dihydro-2H-pyrrolo[3,4-f]thiazepine-3,3′-oxetane]-6-carboxamide]
EC50 (HBV): 6 nM
CC50 at 4 days [1]: > 25 µM

Cn1cc2c(c1C(=O)Nc1ccc(F)c(C#N)c1)CCC1(COC1)NS2(=O)=O [Compound 138, N-(3-cyano-4-fluoro-phenyl)-7-methyl-1,1-dioxo-spiro[4,5-dihydro-2H-pyrrolo[3,4-f]thiazepine-3,3′-oxetane]-6-carboxamide]
EC50 (HBV): 29 nM
CC50 at 4 days [1]: > 25 µM

Cn1cc2c(c1C(=O)Nc1ccc(F)c(C(F)F)c1)C=CC1(COC1)NS2(=O)=O [Compound 139, N-[3-(difluoromethyl)-4-fluoro-phenyl]-7-methyl-1,1-dioxo-spiro[2H-pyrrolo[3,4-f]thiazepine-3,3′-oxetane]-6-carboxamide]
EC50 (HBV): 16 nM
CC50 at 4 days [1]: > 25 µM

Cn1cc2c(c1C(=O)Nc1ccc(F)c(C#N)c1)C=CC1(COC1)NS2(=O)=O [Compound 140, N-(3-cyano-4-fluoro-phenyl)-7-methyl-1,1-dioxo-spiro[2H-pyrrolo-[3,4-f]thiazepine-3,3′-oxetane]-6-carboxamide]
EC50 (HBV): 62 nM
CC50 at 4 days [1]: > 25 µM

Cn1cc2c(c1C(=O)Nc1ccc(F)c(F)c1)OCC(C(O)c1ccccn1)NS2(=O)=O (stereo not drawn) [Compound 141a, N-(3,4-difluorophenyl)-3-[hydroxy(2-pyridyl)methyl]-7-methyl-1,1-dioxo-3,4-dihydro-2H-pyrrolo[3,4-b][1,4,5]oxathiazepine-6-carboxamide]
EC50 (HBV): 30 nM
CC50 at 4 days [1]: > 25 µM

Cn1cc2c(c1C(=O)Nc1cc(F)c(F)c(F)c1)C=CC1(COC1)NS2(=O)=O [Compound 143, 7-methyl-1,1-dioxo-N-(3,4,5-trifluorophenyl)spiro[2H-pyrrolo[3,4-f]thiazepine-3,3′-oxetane]-6-carboxamide]
EC50 (HBV): 24 nM
CC50 at 4 days [1]: > 25 µM

Cn1cc2c(c1C(=O)Nc1cc(F)c(F)c(F)c1)OC[C@H](C(C)(C)O)NS2(=O)=O [Compound 147, (3R)-3-(1-hydroxy-1-methyl-ethyl)-7-methyl-1,1-dioxo-N-(3,4,5-trifluorophenyl)-3,4-dihydro-2H-pyrrolo[3,4-b][1,4,5]oxathiazepine-6-carboxamide]
EC50 (HBV): 13 nM
CC50 at 4 days [1]: > 25 µM

Cn1cc2c(c1C(=O)Nc1ccnc(C(F)F)c1)OC[C@H](C(C)(C)O)NS2(=O)=O [Compound 151, (3R)—N-[2-(difluoromethyl)-4-pyridyl]-3-(1-hydroxy-1-methyl-ethyl)-7-methyl-1,1-dioxo-3,4-dihydro-2H-pyrrolo[3,4-b][1,4,5]oxathiazepine-6-carboxamide]
EC50 (HBV): 76 nM
CC50 at 4 days [1]: > 25 µM

Cc1c2c(c(C(=O)Nc3ccc(F)c(F)c3)n1C)CC[C@H](C)NS2(=O)=O [Compound 152, (3S)—N-(3,4-difluorophenyl)-3,7,8-trimethyl-1,1-dioxo-2,3,4,5-tetrahydropyrrolo[3,4-f]thiazepine-6-carboxamide]
EC50 (HBV): 14 nM
CC50 at 4 days [1]: > 25 µM

Cn1cc2c(c1C(=O)Nc1ccc(F)c(F)c1)OC[C@@](C)(Cc1ccccc1)NS2(=O)=O [Compound 154, (3R)-3-benzyl-N-(3,4-difluorophenyl)-3,7-dimethyl-1,1-dioxo-2,4-dihydropyrrolo[3,4-b][1,4,5]oxathiazepine-6-carboxamide]
EC50 (HBV): 8 nM
CC50 at 4 days [1]: > 25 µM

Cn1cc2c(c1C(=O)Nc1ccc(F)c(F)c1)OC[C@](C)(Cc1ccccc1)NS2(=O)=O [Compound 155, (3S)-3-benzyl-N-(3,4-difluorophenyl)-3,7-dimethyl-1,1-dioxo-2,4-dihydropyrrolo[3,4-b][1,4,5]oxathiazepine-6-carboxamide]
EC50 (HBV): 25 nM
CC50 at 4 days [1]: > 25 µM
